Assay results from publication PMC8040252, “1,2,4-Oxadiazole-Bearing Pyrazoles as Metabolically Stable Modulators of Store-Operated Calcium Entry” (ACS Medicinal Chemistry Letters, 2021).
Marks after values point to notes of the source that are not given here.

What was measured:
[1] = MTT cell viability assay in HEK cells; assay type: cell-based, human; settings: human; for viability at 24 h, 10 µM: mean ± SEM; for cytotoxicity at 24 h, 10 µM: compounds discarded, read-out: cell viability affected by
Description: (§1) With this approach, 24 oxadiazole-bearing pyrazoles were synthesized and tested in human embryonic kidney (HEK) cells for SOCE inhibition. To this aim, intracellular Ca^2+ stores of HEK cells were emptied with t-butylhydroquinone (tBhQ, 50 μM) in the presence of the compounds at 10 μM concentration. After 600 s, Ca^2+ was added and intracellular levels were measured in fluorescence microscopy with the calcium dye Fura-2. […] For these compounds, the cell viability was therefore evaluated. An MTT assay was performed and the compounds that affected cell viability by more than 25% at 10 μM were discarded (23, 31, and 33). […] According to both activity and cytotoxicity, for the selected five compounds, the representative traces are depicted in Figure 3. […]
(§2) 3-(4,5-Dimethylthiazol-2-yl)-2,5-diphenyltetrazolium bromide (MTT) assay Hek cells were plated in 24-wells plate at 20.000 cells per well. After 24 h, cells were treated for other 24 h with the selected compounds. At the end of treatments, medium was removed and substituted by 300 µL of MTT reagent at the final concentration of 0.25 mg/mL for 60 min at 37 °C. Reactions were then stopped and the crystals were solubilized by adding isopropyl alcohol/HCl (1:1; vol:vol) (Sigma-Aldrich Inc., Italy), before reading the absorbance at 570 nm, using the multi-plate reader Victor 3V (PerkinElmer, Milan, Italy). […]
(§3) All statistical assessments were two-sided and a value of P <0.05 was considered statistically significant. Statistical analyses were performed using GraphPad Prism software (GraphPad Software, Inc., USA).

[2] = tested on: Store-operated calcium entry (SOCE); test: SOCE in HEK cells, tBhQ store depletion and Ca2+ re-addition, Fura-2 calcium imaging; assay type: cell-based, human; settings: Homo sapiens; for activity at 10 µM: HEK293, compound 10 μM, tBhQ 50 μM, vs control, mean ± SEM of three experiments, read-out: % SOCE residual activity (10 μM); for IC50: HEK293, mean ± SEM
Description: With this approach, 24 oxadiazole-bearing pyrazoles were synthesized and tested in human embryonic kidney (HEK) cells for SOCE inhibition. […] After 600 s, Ca^2+ was added and intracellular levels were measured in fluorescence microscopy with the calcium dye Fura-2. […] For these compounds, the cell viability was therefore evaluated. An MTT assay was performed and the compounds that affected cell viability by more than 25% at 10 μM were discarded (23, 31, and 33). […] According to both activity and cytotoxicity, for the selected five compounds, the representative traces are depicted in Figure 3.
Human embryonic kidney (Hek) cells were obtained from ATCC (Rockville, MD, USA) and were cultured in Dulbecco’s Modified Eagle’s Medium (DMEM; Sigma-Aldrich, Italy), supplemented with 10% heat-inactivated FBS (Gibco, Italy), L-glutamine […] (Sigma-Aldrich, Italy), 10 U/mL penicillin, and […] streptomycin (Sigma-Aldrich, Italy) at 37 °C, under a 5% CO2 humidified atmosphere. […]
(KRB, 135 mM NaCl, 5 mM KCl, 0.4 mM KH2PO4, 1 mM MgSO4, 5.5 mM glucose, 20mM HEPES, pH 7.4) containing 2 mM CaCl2 (30 min, room temperature). After which, cells were washed and incubated with KRB for other 30 min to allow de-esterification of […]. To measure SOCE, cells were depleted of calcium in the endoplasmic reticulum with 2,5-t-butylhydroquinone (tBhQ, 50 […]
For calcium imaging experiments, Hek cells were plated onto pre-treated poli-L-lysine (P4832, Sigma-Aldrich, Italy) glass coverslips of 24 mm in 6-well plates Cells were loaded with 5 µM of Fura-2 AM, 0.02% of Pluronic-127 (Life technologies, Italy) and 10 µM of sulfinpyrazone (Sigma-Aldrich, Italy) in KRB containing 2 mM CaCl2 for 30 min at RT. Cells were then washed once with KRB for 15 min for de-esterification of Fura-2 AM.
Coverslips were mounted into the acquisition chamber and placed on the stage of a Leica DMI6000 epifluorescent microscope equipped with S Fluor ×40/1.3 objective. Fura-2 AM was excited by alternate 340 and 380 nm using a Polychrome IV monochromator (Till Photonics, Germany), and the probe emission light was filtered through 520/20 bandpass filter and collected by a cooled CCD camera (Hamamatsu, Japan). The fluorescence signals were acquired and processed using MetaFluor software (Molecular Device, Sunnyvale, CA, USA). To quantify the differences in the amplitudes of Ca2+ transients, the ratio values were normalized using the formula ΔF/F0. […]
In calcium imaging experiments, data are presented as Mean +/- standard error (SEM) or Median and interquartile range (IQR). The normality of data distributions was assessed using the Shapiro−Wilk test. Nonparametric (Mann−Whitney U test and one-way) statistical analysis was used for comparisons of data. All statistical assessments were two-sided and a value of P <0.05 was considered statistically significant. Statistical analyses were performed using GraphPad Prism software (GraphPad Software, Inc., USA).

[3] = In vitro hepatic metabolic stability in MLS9 fraction with NADPH; assay type: in vitro ADME, mouse; settings: after 1 h of incubation
Description: The five selected inhibitors (22, 27, 29, 32, and 42) and the identified SOCE enhancer (37) were then evaluated for their in vitro hepatic metabolic stability. To this aim, the candidates were incubated in MLS9 fraction supplied with NADPH and the residual substrate was measured after 1 h. Under these conditions, the oxadiazole-bearing pyrazoles resulted overall metabolically stable, with only two compounds affording a residual substrate lower than 80% and the remaining molecules higher than 90% after incubation (Table 1 and Supporting Information). In contrast, Pyr3 and CIC-37, which suffered from hydrolysis of the ester function, provided a residual substrate of 43 and 74%, respectively (Table 1).[35] Similarly, the residual substrate of Synta66 in MLM is of 15%, due to an important hydrolysis of the amide group, absent in our class (Table 1).[39]
In vitro metabolism and purity of lead compounds
In vitro metabolism studies
Mouse liver S9 (MLS9) (pooled male mouse CD-1, protein concentration: 20 mg/mL) were purchased from Corning B.V. Life Sciences (Amsterdam, The Netherlands) and used throughout this study. The standard incubation mixture (250 μL final volume) was carried out in a 50 mM TRIS (tris[hydroxymethyl]-aminomethane) + 150 mM KCl buffer (pH 7.4) containing 3.3 mM MgCl2, 1.3 mM β-NADP-Na 2, 3.3 mM glucose 6-phosphate, 0.4 Units/mL glucose 6-phosphate dehydrogenase (NADPH regenerating system), 5 μL of acetonitrile ([…]), and the substrate compounds at a concentration of 50 µM. After pre-equilibration of the mixture, an appropriate volume of MLS9 suspension was added to give a final protein concentration of 1.5 mg/mL. The mixture was shaken for 60 min at 37 °C. Each incubation was stopped by addition of 250 μL of ice-cold acetonitrile, vortexed, and centrifuged at 13000 rpm for 10 min. Control incubations were carried out without the presence of MLS9 suspension or cofactors or in absence of the substrate.
LC-UV method for purity and metabolic stability data determination: a Shimadzu HPLC system (Shimadzu, Kyoto, Japan), consisting of two LC-10AD Vp module pumps, an SLC-10A Vp system controller, an SIL-10AD Vp autosampler, and a DGU-14-A on-line degasser were used for the analysis. The SPD-M10Avp photodiode array detector was used to detect the analytes. LC-Solution 1.24 software was used to process the chromatograms.
• Column: Phenomenex Kinetex XB C18, 150 × 4.6 mm (5 µm d.p.) protected with a SecurityGuard® (Torrance, CA, USA).
A: 0.2% formic acid in water;
B: 0.2% formic acid in acetonitrile.

HEK cells = test: MTT cell viability assay in HEK cells; assay type: cell-based, human; settings: 10 μM
Description: as §1, §2, §3

Row | SMILES | viability at 24 h, 10 µM [1] [%] | activity at 10 µM [2] [%] | IC50 [2] [µM] | also measured
1 | CCCC(C)OC(=O)c1cnn(-c2ccc(-n3cc(-c4cccc(C(=O)O)c4)nn3)cc2)c1C(F)(F)F (centres unmarked) [CIC-37, reference compound] | 93.6 ± 4.6 | 17.5 ± 1.6 | 4.4 ± 1.2 | 
2 | CCOC(=O)c1cnn(-c2ccc(NC(=O)C(Cl)=C(Cl)Cl)cc2)c1C(F)(F)F [Pyr3, reference compound] | 28.6 ± 0.5 | 8.9 ± 0.6 | 0.5 ± 0.1 | 
3 | COc1ccc(OC)c(-c2ccc(NC(=O)c3ccncc3F)cc2)c1 [Synta66, reference compound] | 75.8 ± 8 | 9.2 ± 1.7 | 0.2 ± 0.3 | 
4 | Cc1noc(-c2cnn(-c3ccc(NC(=O)c4cccc(C(=O)O)c4)cc3)c2C(F)(F)F)n1 [compound 19] |  | 77.2 ± 3.7 |  | 
5 | Cc1noc(-c2cnn(-c3ccc(NC(=O)c4ccncc4F)cc3)c2C(F)(F)F)n1 [compound 20] |  | 53.6 ± 0.9 |  | 
6 | Cc1noc(-c2cnn(-c3ccc(NC(=O)c4c(C)cccc4F)cc3)c2C(F)(F)F)n1 [compound 21] |  | 56.7 ± 1.3 |  | 
7 | Cc1noc(-c2cnn(-c3ccc(NC(=O)c4c(F)cccc4F)cc3)c2C(F)(F)F)n1 [compound 22] | 95.6 ± 8.5 | 38.6 ± 4.3 | 3.1 ± 1.4 | MLS9 stability (residual substrate) [3]: >99% ^b; cytotoxicity (HEK cells): not cytotoxic
8 | Cc1noc(-c2cnn(-c3ccc(NC(=O)c4ccc(Cl)cc4)cc3)c2C(F)(F)F)n1 [compound 23] | 72.9 ± 11.7 | 40.8 ± 3.6 |  | cytotoxicity at 24 h, 10 µM [1]: > 25%
9 | Cc1noc(-c2cnn(-c3ccc(NC(=O)Cc4ccc(Cl)cc4)cc3)c2C(F)(F)F)n1 [compound 24] |  | 121 ± 2.2 |  | 
10 | Cc1noc(-c2cnn(-c3ccc(NC(=O)c4ccc(C(F)(F)F)cc4)cc3)c2C(F)(F)F)n1 [compound 25] |  | 110 ± 5.9 |  | 
11 | Cc1noc(-c2cnn(-c3ccc(NC(=O)c4ccc(C(O)(C(F)(F)F)C(F)(F)F)cc4)cc3)c2C(F)(F)F)n1 [compound 26] |  | 109 ± 6.5 |  | 
12 | Cc1noc(-c2cnn(-c3ccc(NC(=O)c4ccc([N+](=O)[O-])cc4)cc3)c2C(F)(F)F)n1 [compound 27] | 80.2 ± 7.4 | 40.8 ± 6.9 | 5.5 ± 0.8 | MLS9 stability (residual substrate) [3]: >99% ^b; cytotoxicity (HEK cells): not cytotoxic
13 | Cc1noc(-c2cnn(-c3ccc(NC(=O)Cc4ccc([N+](=O)[O-])cc4)cc3)c2C(F)(F)F)n1 [compound 28] |  | 108 ± 3.9 |  | 
14 | Cc1noc(-c2cnn(-c3ccc(NC(=O)c4ccc(C#N)c(F)c4)cc3)c2C(F)(F)F)n1 [compound 29] | 101 ± 6.7 | 49.6 ± 6.5 | 9.7 ± 2.3 | MLS9 stability (residual substrate) [3]: 73% ^b; cytotoxicity (HEK cells): not cytotoxic
15 | Cc1noc(-c2cnn(-c3ccc(NC(=O)c4ccccc4I)cc3)c2C(F)(F)F)n1 [compound 30] |  | 53.2 ± 3.9 |  | 
16 | Cc1noc(-c2cnn(-c3ccc(NC(=O)c4ccc5nc[nH]c5c4)cc3)c2C(F)(F)F)n1 [compound 31] | 56.5 ± 2.5 | 47.4 ± 1 |  | cytotoxicity at 24 h, 10 µM [1]: > 25%
17 | Cc1noc(-c2cnn(-c3ccc(NC(=O)c4c(C)noc4C)cc3)c2C(F)(F)F)n1 [compound 32] | 77.7 ± 4.4 | 33.2 ± 1.9 | 9.6 ± 2.5 | MLS9 stability (residual substrate) [3]: 99% ^b; cytotoxicity (HEK cells): not cytotoxic
18 | Cc1noc(-c2cnn(-c3ccc(NC(=O)c4snnc4C)cc3)c2C(F)(F)F)n1 [compound 33] | 59.1 ± 6.3 | 46.5 ± 2.8 |  | cytotoxicity at 24 h, 10 µM [1]: > 25%
19 | Cc1noc(-c2cnn(-c3ccc(NC(=O)c4cc(Br)c[nH]4)cc3)c2C(F)(F)F)n1 [compound 35] |  | 69.8 ± 2.9 |  | melting point: 205 to 206 °C
20 | COc1ccccc1NS(=O)(=O)c1cc(C(=O)Nc2ccc(-n3ncc(-c4nc(C)no4)c3C(F)(F)F)cc2)ccc1C [compound 36] |  | 59.9 ± 4.2 |  | 
21 | CCCCCCCCCCCC(=O)Nc1ccc(-n2ncc(-c3nc(C)no3)c2C(F)(F)F)cc1 [compound 38] |  | 53.8 ± 4.4 |  | 
22 | Cc1noc(-c2cnn(-c3ccc(NC(=O)CCN4CCOCC4)cc3)c2C(F)(F)F)n1 [compound 39] |  | 95.9 ± 6.2 |  | 
23 | Cc1noc(-c2cnn(-c3ccc(NC(=O)C4CCS(=O)(=O)CC4)cc3)c2C(F)(F)F)n1 [compound 40] |  | 87.5 ± 3.8 |  | 
24 | Cc1noc(-c2cnn(-c3ccc(NC(=O)COc4ccccc4)cc3)c2C(F)(F)F)n1 [compound 41] |  | 63.6 ± 3.9 |  | 
25 | Cc1ccc(S(=O)(=O)Nc2ccc(-n3ncc(-c4nc(C)no4)c3C(F)(F)F)cc2)cc1 [compound 42] | 79.4 ± 4.2 | 47.6 ± 4.2 | 9.5 ± 1.7 | MLS9 stability (residual substrate) [3]: 76% ^b; cytotoxicity (HEK cells): not cytotoxic; melting point: 149 to 150 °C
